Assays:
Type in all cases: in vivo
[1] = tested on: green peach aphid (Myzus persicae); test: whole plant or invertebrate; details: 120 h, MYZUPE oral, 0.16 ppm, 5 dat (Table 3), read-out: % Efficacy
Description: Solvent: 100 parts by weight acetone
To produce a suitable preparation of active compound, 1 part by weight of active compound is mixed with the stated amount of solvent, and the concentrate is diluted with water to the desired concentration.
50 μL compound solution is filled in microtiter plates and 150 μL IPL41 insect medium (33%+15% sugar) is added to obtain a total volume of 200 μL per well. Afterwards the plates are sealed with parafilm through which a mixed population of the green peach aphid (Myzus persicae) can suck on the compound preparation.
After 5 days mortality in % is determined. 100% means all aphids have been killed and 0% means none of the aphids have been killed.
Myzus persicae—Oral Test (MYZUPE Oral)

[2] = tested on: fall armyworm larvae (Spodoptera frugiperda); test: whole plant or invertebrate; details: 168 h; for Emax at 20 g/ha: SPODFR, 20 g ai/ha, 7 dat (Table 3), read-out: % Efficacy
Procedure, shortened: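 Maize leaf sections sprayed with compound in acetone/DMF with alkylarylpolyglycol ether emulsifier diluted in water, then infested with fall armyworm larvae once dry. Mortality (%) scored after 7 days; 100% = all caterpillars killed.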

[3] = tested on: cattle tick larvae (Rhipicephalus microplus), strain Parkhurst, resistant against synthetic pyrethroids; test: Rhipicephalus (Boophilus) microplus in-vitro contact test, larval cattle tick; details: 5 μg/cm^2 (=500 g/ha), after 48 hours
Procedure, shortened: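 After drying, 20-50 larvae were held per tube at 27° C., 85% relative humidity for 48 h, and efficacy was scored as % dead or moribund.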

[4] = tested on: adult cat fleas (Ctenocephalides felis); test: Ctenocephalides felis in-vitro contact test, adult cat flea; details: 5 μg/cm^2 (=500 g/ha), after 48 hours
Procedure, shortened: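 Acetone solutions of compound were coated onto inner walls of glass tubes (900 ppm giving 5 μg/cm^2) and dried; 5-10 adult C. felis were then held 48 h at room temperature. Efficacy = % fleas dead or moribund, judged by inability to escape a 45-50° C heating plate within 5 min.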

[5] = tested on: adult brown dog ticks (Rhipicephalus sanguineus); test: Rhipicephalus sanguineus in-vitro contact test, adult brown dog ticks; details: 48 h, read-out: efficacy (ticks dead or moribund)
Procedure, shortened: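 Acetone solution (900 ppm giving 5 μg/cm²) coated on inner walls of glass tubes; after drying, 5-10 adult ticks added and held at room temperature 48 h. Ticks then placed on 45-50 °C plate ≤5 min; those unable to climb away scored dead/moribund, efficacy as % affected.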

[6] = tested on: larvae of the banded cucumber beetle (Diabrotica balteata); test: Diabrotica balteata spray test; details: 168 h, 100 g/ha (=32 μg/well), after 7 days, read-out: efficacy (seedling growth)
Procedure, shortened: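 Germinated wheat seeds on agar (5 per well) were sprayed with compound formulated in acetone/DMF and diluted in water with 1000 ppm emulsifier. Each unit was then infested with 10–20 larvae. Efficacy % was scored after 7 days as seedling growth relative to an untreated, uninfested control (100% = normal growth).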

[7] = tested on: green peach aphid (Myzus persicae); test: Myzus persicae spray test (MYZUPE); details: 120 h, 100 g/ha, after 5 days
Procedure, shortened: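 Chinese cabbage leaf disks infested with all instars of Myzus persicae were sprayed with compound formulated in acetone/dimethylformamide and diluted in water with 1000 ppm alkylarylpolyglycol ether emulsifier. Percent mortality was scored after 5 days, 100% meaning all aphids killed.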

[8] = tested on: larvae of the southern green stink bug (Nezara viridula); test: whole plant or invertebrate; details: 96 h
Procedure, shortened: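 Compound in acetone/DMF was diluted in water with 1000 ppm alkylarylpolyglycol ether emulsifier. Barley plants were sprayed with it, then infested with Nezara viridula larvae. Mortality % was scored after 4 days (100% = all killed).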

[9] = tested on: brown planthopper (Nilaparvata lugens); test: Nilaparvata lugens spray test; details: 96 h
Procedure, shortened: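 Rice plants (Oryza sativa) sprayed with compound formulated in acetone/DMF with alkylarylpolyglycol ether emulsifier (1000 ppm in diluting water), then infested with planthoppers. Mortality (%) scored after 4 days; 100% = all insects killed, 0% = none killed.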

[10] = tested on: adult mosquitoes Aedes aegypti strain MONHEIM; test: Aedes aegypti test (AEDSAE surface treatment & contact assay); details: 24 hours after contact, read-out: efficacy (mortality)
Procedure, shortened: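 Compound in acetone containing 2000 ppm rapeseed oil methyl ester applied to a glazed tile and dried; adult mosquitoes exposed on the treated surface for 30 minutes. Percent mortality scored 24 hours after contact (100% = all dead, 0% = none dead).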

[11] = tested on: adult mosquitoes Culex quinquefasciatus strain P00; test: Culex quinquefasciatus test (CULXFA surface treatment & contact assay); details: 24 hours after contact, read-out: efficacy (mortality)
Description: Culex quinquefasciatus Test (CULXFA Surface Treatment & Contact Assay)
(§1) Solvent: Aceton+2000 ppm rapeseed oil methyl ester (RME)
(§2) This solution is pipetted onto a glazed tile and after evaporation of the acetone, adult mosquitoes of the species Culex quinquefasciatus strain P00 are placed onto the dried surface. The exposure time is 30 minutes. Mortality in percent (%) is determined 24 hours after contact of the insects to the treated surface. 100% mortality means that all tested insects are dead, whereas 0% means that no insect died.

[12] = tested on: adult flies Musca domestica strain WHO-N; test: Musca domestica test (MUSCDO surface treatment & contact assay); details: 24 hours after contact, read-out: efficacy (mortality)
Description: Musca domestica Test (MUSCDO Surface Treatment & Contact Assay)
as §1
as §2, with “flies” for “mosquitoes”, “Musca domestica” for “Culex quinquefasciatus”, “WHO-N” for “P00”

[13] = tested on: adult animals Blattella germanica strain PAULINIA; test: Blattella germanica test (BLTTGE surface treatment & contact assay); details: 24 hours after contact, read-out: efficacy (mortality)
Description: Blattella germanica Test (BLTTGE Surface Treatment & Contact Assay)
as §1
In order to produce a sufficient, active ingredient containing solution it is necessary to solve the test compound in the solvent-mix (acetone at 2 mg/ml/RME 2000 ppm). This solution is pipetted onto a glazed tile and after evaporation of the acetone, adult animals of the species Blattella germanica strain PAULINIA are placed onto the dried surface. The exposure time is 30 minutes.
Mortality in percent (%) is determined 24 hours after contact of the insects to the treated surface. 100% mortality means that all tested insects are dead, whereas 0% means that no insect died.

[14] = surface concentration 4 mg/m^2, 30 min exposure
[15] = surface concentration 20 mg/m^2, 30 min exposure

Compound: C[C@H](NC(=O)c1cc(Cl)cc(S(C)(=O)=O)c1)c1ncnn1-c1cc(C#N)ccn1 [I-148 Known from WO 2019197468, reference compound]
- Emax at 0.16 ppm [1]: 0%
- Emax at 20 g/ha [2]: 33%

Compound: C[C@H](NC(=O)c1cc(Cl)cc(OC(F)(F)F)c1)c1ncnn1-c1cc(C(N)=O)ncn1 [I-49]
- efficacy (larvae dead or moribund) [3]: 100%
- efficacy (fleas dead or moribund) [4]: 100%
- pest or weed control at 5 µg/cm2, 500 g/ha [5]: 80%
- pest or weed control at 32 µg/disc, 100 g/ha [6]: 100%
- mortality at 100 g/ha [7]: 100%
- mortality at 100 g/ha [8]: 100%
- mortality at 500 g/ha [8]: 100%
- mortality at 500 g/ha [9]: 100%
- mortality at 100 g/ha [2]: 100%
- mortality at 4 mg/m2 [10, 14]: 80 to 100%
- mortality at 20 mg/m2 [10, 15]: 80 to 100%
- mortality at 4 mg/m2 [11, 14]: 80 to 100%
- mortality at 20 mg/m2 [11, 15]: 80 to 100%
- mortality at 4 mg/m2 [12, 14]: 80 to 100%
- mortality at 20 mg/m2 [12, 15]: 80 to 100%
- mortality at 4 mg/m2 [13, 14]: 80 to 100%
- mortality at 20 mg/m2 [13, 15]: 80 to 100%

Compound: C[C@H](NC(=O)c1cc(Cl)cc(S(C)(=O)=O)c1)c1ncnn1-c1ccncn1 [I-146 Known from WO 2019197468, reference compound]
- Emax at 0.16 ppm [1]: 0%
- Emax at 20 g/ha [2]: 33%

Source: patent US12612386B2, “Heteroaryl-triazole compounds as pesticides” (Bayer Aktiengesellschaft, priority 2020, dated 2026)
